Assay results from the supplement of paper PMC11061612.

Legend:
Assay in all cases: Bliss excess, mean over the matrix (fraction); higher = more synergy
[1] = system: UM-UC-3 (Bladder Carcinoma)
Outline: (§1)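 Cell lines in DMEM/F12 or RPMI with 10% FBS were plated in 1536-well plates, held 24 hours at 37°C, 5% CO2, then given two-drug dose matrices for 72 hours (DMSO typically 0.2%). Viability was read by CellTiter-Glo 2.0 luminescence and scaled as inhibition from 0 (vehicle wells) to 1 (blank wells). Combination Emax is the second-highest inhibition in the matrix; Bliss excess is observed combination effect minus expected EA + EB − EA·EB, EA and EB being single-agent effects.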

[2] = system: ES4 (Ewing's Sarcoma)
Outline: as §1

[3] = system: CAL-148 (Breast Carcinoma)
Outline: as §1

[4] = system: Hs-578-T (Breast Carcinoma)
Outline: as §1

[5] = system: HCC1806 (Breast Carcinoma)
Outline: as §1

[6] = system: B-CPAP (Thyroid Gland Carcinoma)
Outline: as §1

[7] = system: KURAMOCHI (Ovarian Carcinoma)
Outline: as §1

[8] = system: LNCaP-Clone-FGC (Prostate Carcinoma)
Outline: as §1

[9] = system: NCI-H82 (Small Cell Lung Carcinoma)
Outline: as §1

[10] = system: HO-1-N-1 (Oral Cavity Carcinoma)
Outline: as §1

[11] = system: 42-MG-BA (Glioblastoma)
Outline: as §1

[12] = system: KYSE-520 (Esophageal Squamous Cell Carcinoma)
Outline: as §1

[13] = system: Ramos-2G6-4C10 (Burkitt's Lymphoma)
Outline: as §1

[14] = system: RO82-W-1 (Thyroid Gland Carcinoma)
Outline: as §1

[15] = system: TCCSUP (Bladder Carcinoma)
Outline: as §1

[16] = system: DoTc2-4510 (Cervical Carcinoma)
Outline: as §1

[17] = system: LS-180 (Colorectal Carcinoma)
Outline: as §1

[18] = system: DEL (T-Cell Non-Hodgkin's Lymphoma)
Outline: as §1

[19] = system: Calu-3 (Lung Adenocarcinoma)
Outline: as §1

[20] = system: ME-1 (Acute Myeloid Leukemia)
Outline: as §1

SMILES | Bliss excess [1] | Bliss excess [2] | Bliss excess [3] | Bliss excess [4] | Bliss excess [5] | Bliss excess [6] | Bliss excess [7] | Bliss excess [8] | Bliss excess [9] | Bliss excess [10] | Bliss excess [11] | Bliss excess [12] | Bliss excess [13] | Bliss excess [14] | Bliss excess [15] | Bliss excess [16] | Bliss excess [17] | Bliss excess [18] | Bliss excess [19] | Bliss excess [20]
CCN(CCO)CCCOc1ccc2c(Nc3cc(CC(=O)Nc4cccc(F)c4)[nH]n3)ncnc2c1 [AZD2811] + C[C@@H]1COCCN1C2=NC(=NC(=C2)C3(CC3)[S@](=N)(=O)C)C4=C5C=CNC5=NC=C4 [AZD6738] (first compound max 1 µM, 7x7, partner max 10 µM) | 0.0276 | -0.0042 | -0.0252 | -0.0811 | -0.014 | -0.0276 | -0.0649 | -0.0447 | -0.0406 | -0.053 | 0.037 | -0.0323 | -0.0008 | -0.0543 | 0.0006 | -0.0481 | -0.0723 | 0.0156 | -0.0169 | -0.0813
CCN(CCO)CCCOc1ccc2c(Nc3cc(CC(=O)Nc4cccc(F)c4)[nH]n3)ncnc2c1 [AZD2811] + O=C(c1cc(Cc2n[nH]c(=O)c3ccccc23)ccc1F)N1CCN(C(=O)C2CC2)CC1 [Olaparib] (first compound max 1 µM, 7x7, partner max 10 µM) | 0.0332 | -0.0138 | 0.0319 | -0.0192 | 0.0298 | 0.0104 | -0.0317 | -0.0009 | 0.022 | -0.0329 | 0.009 | -0.0217 | 0.0573 | -0.0564 | 0.0238 | 0.0035 | 0.0636 | 0.0328 | 0.0047 | 0.0119
CN(CCO)CC[C@H](CSc1ccccc1)Nc1ccc(S(=O)(=O)NC(=O)c2ccc(N3CCC([C@@H](O)c4ccccc4-c4ccc(Cl)cc4)CC3)cc2)cc1S(=O)(=O)C(F)(F)F [AZD4320] + C1CN(CCC1(C(=O)N[C@@H](CCO)C2=CC=C(C=C2)Cl)N)C3=NC=NC4=C3C=CN4 [Capivasertib] (first compound max 1 µM, 7x7, partner max 3 µM) | -0.0228 | -0.0333 | 0.0346 | -0.0198 | -0.0078 | -0.0377 | -0.0393 | -0.0239 | 0.0177 | -0.0187 | -0.0479 | -0.0696 | 0.038 | -0.0513 | -0.0568 | 0.0501 | -0.0389 | -0.0028 | -0.0149 | -0.0374
CN(CCO)CC[C@H](CSc1ccccc1)Nc1ccc(S(=O)(=O)NC(=O)c2ccc(N3CCC([C@@H](O)c4ccccc4-c4ccc(Cl)cc4)CC3)cc2)cc1S(=O)(=O)C(F)(F)F [AZD4320] + C=CCn1c(=O)c2cnc(Nc3ccc(N4CCN(C)CC4)cc3)nc2n1-c1cccc(C(C)(C)O)n1 [AZD1775] (first compound max 1 µM, partner max 1 µM) | -0.0064 | 0.12 | -0.0033 | 0.022 | 0.0043 | 0.0808 | 0.0419 | -0.0222 | 0.0113 | -0.0023 | -0.027 | -0.0172 | 0.0808 | -0.0364 | 0.0373 | 0.0205 | 0.0046 | 0.0464 | 0.014 | 0.0475
CN(CCO)CC[C@H](CSc1ccccc1)Nc1ccc(S(=O)(=O)NC(=O)c2ccc(N3CCC([C@@H](O)c4ccccc4-c4ccc(Cl)cc4)CC3)cc2)cc1S(=O)(=O)C(F)(F)F [AZD4320] + CCN(CCO)CCCOc1ccc2c(Nc3cc(CC(=O)Nc4cccc(F)c4)[nH]n3)ncnc2c1 [AZD2811] (first compound max 1 µM, 7x7, partner max 1 µM) | 0.0325 | 0.0157 | -0.0027 | 0.183 | -0.0127 | 0.0126 | 0.0224 | -0.0105 | 0.0891 | -0.0255 | 0.15 | -0.0505 | 0.18 | 0.0032 | -0.0194 | 0.114 | -0.0044 | -0.124 | -0.0142 | 0.0068
CN(CCO)CC[C@H](CSc1ccccc1)Nc1ccc(S(=O)(=O)NC(=O)c2ccc(N3CCC([C@@H](O)c4ccccc4-c4ccc(Cl)cc4)CC3)cc2)cc1S(=O)(=O)C(F)(F)F [AZD4320] + CN(C)CCCOc1ccc(-c2ccc3ncc4c(c3c2)n(C2CCOCC2)c(=O)n4C)cn1 [AZD0156] (first compound max 1 µM, 7x7, partner max 1 µM) | -0.0219 | 0.0223 | 0.0183 | -0.0178 | 0.0142 | -0.0065 | -0.0367 | -0.089 | 0.012 | -0.0011 | -0.0225 | -0.051 | 0.026 | -0.0258 | -0.0227 | -0.12 | -0.0209 | 0.0265 | -0.0153 | -0.0069
